Results taken from ChEMBL document CHEMBL3885861, “Open TG-GATES”.

Species: Rattus norvegicus
Assay: Open TG-GATES - Regimen: Daily Repeat
Format: toxicity, organism-based, Sprague-Dawley
Parameters: regimen Daily Repeat, gender Male, age 6 weeks
Details: in vivo, po, route gavage; for APTT / Bas / Eos / Fbg / Hb / Ht / Lym / MCH / MCHC / MCV / Mono / Neu / PT / Plat / RBC / Ret / WBC: tissue Blood; for KIDNEY_L / KIDNEY_R / KIDNEY_TOTAL: tissue Kidney; for LIVER: tissue Liver; for A/G / ALP / ALT / AST / BUN / CRE / Ca / Cl / DBIL / GLC / IP / K / LDH / Na / PL / RALB / TBIL / TC / TG / TP / gamma-GTP: tissue Plasma
[1] = 30 mg/kg, 72 h, dose level Middle, time 3 day
[2] = 30 mg/kg, […], dose level Middle, time 7 day
[3] = 30 mg/kg, […], dose level Middle, time 14 day
[4] = 30 mg/kg, […], dose level Middle, time 28 day
[5] = 100 mg/kg, 72 h, dose level High, time 3 day
[6] = 100 mg/kg, […], dose level High, time 7 day
[7] = 100 mg/kg, […], dose level High, time 14 day
[8] = 100 mg/kg, […], dose level High, time 28 day

OCCOCCN1CCN(C(c2ccccc2)c2ccc(Cl)cc2)CC1 (centres undefined) [HYDROXYZINE]
TERMINAL_BW [1]: 226.2 g
APTT [1]: 15.8 s
Bas [1]: 0%
Eos [1]: 1%
Fbg [1]: 261.2 mg/dL
Hb [1]: 13.3 g/dL
Ht [1]: 40%
Lym [1]: 77.6%
MCH [1]: 21.9 pg
MCHC [1]: 33.3%
MCV [1]: 65.7 fL
Mono [1]: 3%
Neu [1]: 17.8%
PT [1]: 15.3 s
Plat [1]: 120.2 x10_4/uL
RBC [1]: 609.6 x10_4/ul
Ret [1]: 6.9%
WBC [1]: 89.6 x10_2/uL
KIDNEY_L [1]: 1 g
KIDNEY_R [1]: 1 g
KIDNEY_TOTAL [1]: 2 g
LIVER [1]: 10.9 g
A/G [1]: 0.9
ALP [1]: 1463.8 IU/L
ALT [1]: 40.4 IU/L
AST [1]: 66.6 IU/L
BUN [1]: 16.8 mg/dL
CRE [1]: 0.2 mg/dL
Ca [1]: 11.1 mg/dL
Cl [1]: 104.8 meq/L
DBIL [1]: 0.012 mg/dL
GLC [1]: 186 mg/dL
IP [1]: 7.9 mg/dL
K [1]: 4 meq/L
LDH [1]: 72.6 IU/L
Na [1]: 143.6 meq/L
PL [1]: 158.6 mg/dL
RALB [1]: 2.6 g/dL
TBIL [1]: 0.05 mg/dL
TC [1]: 83 mg/dL
TG [1]: 100.8 mg/dL
TP [1]: 5.6 g/dL
gamma-GTP [1]: 0.8 IU/L
TERMINAL_BW [2]: 271.6 g
TERMINAL_BW [3]: 331.8 g
TERMINAL_BW [4]: 390.1 g
APTT [2]: 17 s
Bas [2]: 0.2%
Eos [2]: 0.6%
Fbg [2]: 265.6 mg/dL
Hb [2]: 13.6 g/dL
Ht [2]: 40.6%
Lym [2]: 81.8%
MCH [2]: 21.5 pg
MCHC [2]: 33.6%
MCV [2]: 63.9 fL
Mono [2]: 2.2%
Neu [2]: 14.4%
PT [2]: 15.6 s
Plat [2]: 107.6 x10_4/uL
RBC [2]: 636 x10_4/ul
Ret [2]: 6.5%
WBC [2]: 91.6 x10_2/uL
APTT [3]: 16.5 s
Bas [3]: 0%
Eos [3]: 0.8%
Fbg [3]: 262.8 mg/dL
Hb [3]: 14.2 g/dL
Ht [3]: 41.5%
Lym [3]: 81.4%
MCH [3]: 20.7 pg
MCHC [3]: 34.2%
MCV [3]: 60.7 fL
Mono [3]: 3%
Neu [3]: 14.2%
PT [3]: 15.6 s
Plat [3]: 116.6 x10_4/uL
RBC [3]: 683.8 x10_4/ul
Ret [3]: 4.5%
WBC [3]: 103.2 x10_2/uL
APTT [4]: 17.6 s
Bas [4]: 0.4%
Eos [4]: 1.6%
Fbg [4]: 274.4 mg/dL
Hb [4]: 15.8 g/dL
Ht [4]: 45.6%
Lym [4]: 80.6%
MCH [4]: 19.9 pg
MCHC [4]: 34.5%
MCV [4]: 57.5 fL
Mono [4]: 2%
Neu [4]: 14.8%
PT [4]: 15.9 s
Plat [4]: 91.9 x10_4/uL
RBC [4]: 792.8 x10_4/ul
Ret [4]: 2.3%
WBC [4]: 101.1 x10_2/uL
KIDNEY_L [2]: 1.1 g
KIDNEY_R [2]: 1.1 g
KIDNEY_TOTAL [2]: 2.3 g
KIDNEY_L [3]: 1.3 g
KIDNEY_R [3]: 1.3 g
KIDNEY_TOTAL [3]: 2.7 g
KIDNEY_L [4]: 1.5 g
KIDNEY_R [4]: 1.4 g
KIDNEY_TOTAL [4]: 2.9 g
LIVER [2]: 14 g
LIVER [3]: 16.6 g
LIVER [4]: 16.7 g
A/G [2]: 0.8
ALP [2]: 1827.8 IU/L
ALT [2]: 37.6 IU/L
AST [2]: 64.2 IU/L
BUN [2]: 18 mg/dL
CRE [2]: 0.2 mg/dL
Ca [2]: 11 mg/dL
Cl [2]: 104.8 meq/L
DBIL [2]: 0.018 mg/dL
GLC [2]: 192.8 mg/dL
IP [2]: 7.8 mg/dL
K [2]: 4.3 meq/L
LDH [2]: 58.4 IU/L
Na [2]: 142 meq/L
PL [2]: 158 mg/dL
RALB [2]: 2.7 g/dL
TBIL [2]: 0.05 mg/dL
TC [2]: 78 mg/dL
TG [2]: 120.8 mg/dL
TP [2]: 5.9 g/dL
gamma-GTP [2]: 0.6 IU/L
A/G [3]: 0.8
ALP [3]: 1412.8 IU/L
ALT [3]: 37.6 IU/L
AST [3]: 63.6 IU/L
BUN [3]: 17.4 mg/dL
CRE [3]: 0.2 mg/dL
Ca [3]: 10.7 mg/dL
Cl [3]: 103.4 meq/L
DBIL [3]: 0.02 mg/dL
GLC [3]: 192.4 mg/dL
IP [3]: 7.6 mg/dL
K [3]: 4.1 meq/L
LDH [3]: 82.6 IU/L
Na [3]: 141.6 meq/L
PL [3]: 163 mg/dL
RALB [3]: 2.7 g/dL
TBIL [3]: 0.05 mg/dL
TC [3]: 81.8 mg/dL
TG [3]: 142 mg/dL
TP [3]: 6 g/dL
gamma-GTP [3]: 0.6 IU/L
A/G [4]: 0.8
ALP [4]: 1021.6 IU/L
ALT [4]: 37.2 IU/L
AST [4]: 59.4 IU/L
BUN [4]: 17.8 mg/dL
CRE [4]: 0.2 mg/dL
Ca [4]: 10.6 mg/dL
Cl [4]: 105 meq/L
DBIL [4]: 0.014 mg/dL
GLC [4]: 191.2 mg/dL
IP [4]: 6.7 mg/dL
K [4]: 4 meq/L
LDH [4]: 52 IU/L
Na [4]: 142.8 meq/L
PL [4]: 156.6 mg/dL
RALB [4]: 2.8 g/dL
TBIL [4]: 0.046 mg/dL
TC [4]: 77.4 mg/dL
TG [4]: 123 mg/dL
TP [4]: 6.2 g/dL
gamma-GTP [4]: 0.6 IU/L
TERMINAL_BW [5]: 215.1 g
APTT [5]: 17.1 s
Bas [5]: 0%
Eos [5]: 0.8%
Fbg [5]: 297 mg/dL
Hb [5]: 13.6 g/dL
Ht [5]: 40.5%
Lym [5]: 73.4%
MCH [5]: 20.9 pg
MCHC [5]: 33.5%
MCV [5]: 62.5 fL
Mono [5]: 3.2%
Neu [5]: 21.8%
PT [5]: 15.7 s
Plat [5]: 128.8 x10_4/uL
RBC [5]: 648.2 x10_4/ul
Ret [5]: 5.3%
WBC [5]: 97.2 x10_2/uL
KIDNEY_L [5]: 1 g
KIDNEY_R [5]: 1 g
KIDNEY_TOTAL [5]: 2 g
LIVER [5]: 11.2 g
A/G [5]: 0.8
ALP [5]: 2293.8 IU/L
ALT [5]: 42.6 IU/L
AST [5]: 72.8 IU/L
BUN [5]: 17.6 mg/dL
CRE [5]: 0.2 mg/dL
Ca [5]: 10.9 mg/dL
Cl [5]: 104.8 meq/L
DBIL [5]: 0.016 mg/dL
GLC [5]: 170.8 mg/dL
IP [5]: 7.8 mg/dL
K [5]: 3.9 meq/L
LDH [5]: 56.2 IU/L
Na [5]: 142.6 meq/L
PL [5]: 126.2 mg/dL
RALB [5]: 2.6 g/dL
TBIL [5]: 0.05 mg/dL
TC [5]: 67.8 mg/dL
TG [5]: 62.6 mg/dL
TP [5]: 5.6 g/dL
gamma-GTP [5]: 1 IU/L
TERMINAL_BW [6]: 246 g
TERMINAL_BW [7]: 300.3 g
TERMINAL_BW [8]: 378.6 g
APTT [6]: 18 s
Bas [6]: 0%
Eos [6]: 0.8%
Fbg [6]: 297 mg/dL
Hb [6]: 13.6 g/dL
Ht [6]: 40.3%
Lym [6]: 81%
MCH [6]: 21 pg
MCHC [6]: 33.7%
MCV [6]: 62.3 fL
Mono [6]: 2.2%
Neu [6]: 15.4%
PT [6]: 15.5 s
Plat [6]: 109.3 x10_4/uL
RBC [6]: 647.2 x10_4/ul
Ret [6]: 4.6%
WBC [6]: 79.7 x10_2/uL
APTT [7]: 18.5 s
Bas [7]: 0.4%
Eos [7]: 1%
Fbg [7]: 300.4 mg/dL
Hb [7]: 13.7 g/dL
Ht [7]: 40.2%
Lym [7]: 78%
MCH [7]: 20 pg
MCHC [7]: 34.2%
MCV [7]: 58.5 fL
Mono [7]: 3%
Neu [7]: 16.6%
PT [7]: 16.2 s
Plat [7]: 124.9 x10_4/uL
RBC [7]: 686.4 x10_4/ul
Ret [7]: 5.2%
WBC [7]: 128.4 x10_2/uL
APTT [8]: 22.4 s
Bas [8]: 0.4%
Eos [8]: 0.8%
Fbg [8]: 290.2 mg/dL
Hb [8]: 14.7 g/dL
Ht [8]: 42.3%
Lym [8]: 79.6%
MCH [8]: 18.5 pg
MCHC [8]: 34.8%
MCV [8]: 53.1 fL
Mono [8]: 2.4%
Neu [8]: 16.8%
PT [8]: 15.7 s
Plat [8]: 109.6 x10_4/uL
RBC [8]: 796.6 x10_4/ul
Ret [8]: 2.9%
WBC [8]: 135.7 x10_2/uL
KIDNEY_L [6]: 1.1 g
KIDNEY_R [6]: 1.1 g
KIDNEY_TOTAL [6]: 2.2 g
KIDNEY_L [7]: 1.3 g
KIDNEY_R [7]: 1.4 g
KIDNEY_TOTAL [7]: 2.7 g
KIDNEY_L [8]: 1.6 g
KIDNEY_R [8]: 1.5 g
KIDNEY_TOTAL [8]: 3.2 g
LIVER [6]: 15.2 g
LIVER [7]: 18.1 g
LIVER [8]: 21.7 g
A/G [6]: 0.8
ALP [6]: 2036.8 IU/L
ALT [6]: 34 IU/L
AST [6]: 61.4 IU/L
BUN [6]: 18 mg/dL
CRE [6]: 0.2 mg/dL
Ca [6]: 11 mg/dL
Cl [6]: 104.6 meq/L
DBIL [6]: 0.018 mg/dL
GLC [6]: 186 mg/dL
IP [6]: 7.9 mg/dL
K [6]: 4.4 meq/L
LDH [6]: 62 IU/L
Na [6]: 141.6 meq/L
PL [6]: 138.2 mg/dL
RALB [6]: 2.6 g/dL
TBIL [6]: 0.046 mg/dL
TC [6]: 76.8 mg/dL
TG [6]: 55 mg/dL
TP [6]: 5.8 g/dL
gamma-GTP [6]: 0.8 IU/L
A/G [7]: 0.8
ALP [7]: 2097.8 IU/L
ALT [7]: 39.6 IU/L
AST [7]: 66 IU/L
BUN [7]: 17.2 mg/dL
CRE [7]: 0.2 mg/dL
Ca [7]: 10.7 mg/dL
Cl [7]: 102.8 meq/L
DBIL [7]: 0.018 mg/dL
GLC [7]: 193 mg/dL
IP [7]: 7.6 mg/dL
K [7]: 4 meq/L
LDH [7]: 94.4 IU/L
Na [7]: 141.4 meq/L
PL [7]: 141.4 mg/dL
RALB [7]: 2.7 g/dL
TBIL [7]: 0.044 mg/dL
TC [7]: 75 mg/dL
TG [7]: 62.4 mg/dL
TP [7]: 5.9 g/dL
gamma-GTP [7]: 0.8 IU/L
A/G [8]: 0.8
ALP [8]: 1321.8 IU/L
ALT [8]: 33.2 IU/L
AST [8]: 58.8 IU/L
BUN [8]: 17.8 mg/dL
CRE [8]: 0.2 mg/dL
Ca [8]: 10.9 mg/dL
Cl [8]: 103.6 meq/L
DBIL [8]: 0.012 mg/dL
GLC [8]: 193.8 mg/dL
IP [8]: 7 mg/dL
K [8]: 4.5 meq/L
LDH [8]: 81.8 IU/L
Na [8]: 141.8 meq/L
PL [8]: 117.6 mg/dL
RALB [8]: 2.9 g/dL
TBIL [8]: 0.038 mg/dL
TC [8]: 64 mg/dL
TG [8]: 41.6 mg/dL
TP [8]: 6.4 g/dL
gamma-GTP [8]: 1 IU/L
